# Laboratory results: US20160024203A1, “METHODS OF PRODUCING ANTIBODIES IN YEAST” (BRISTOL-MYERS SQUIBB COMPANY, priority 2013, published 2016)
# Experiments:
# [1] = test system: P. pastoris; experiment: Effects of hydroxyurea on cell growth and antibody productivity in P. pastoris fermentation (Run 01MAY11); format: cell-based, Pichia pastoris; conditions: for Sup Titer (Normalized): anti-IL-6 antibody supernatant titer; for Sup Titer (Normalized) / WB Titer (Normalized): lots T5, T6 and T10 + hydroxyurea 2.6-2.8 g/L; for WCW: lots T5, T6 and T10 + hydroxyurea 2.6-2.8 g/L added 5 hours after feed start, triplicate bioreactors; for WB Titer (Normalized): whole broth titer = supernatant titer*(1-WCW/1000)
# Protocol: The glucose and ethanol were measured by YSI 2700 (YSI Incorporated, Yellow Springs, Ohio), O2 and CO2 of the exhaust line were measured by Questor GP Process Mass Spectrometer (ABB Extrel, Pittsburgh, Pa.) and the RQ value was calculated using below Equation [1]. The wet cell weight (WCW) was measured by centrifuging one (1) milliliter (mL) fermentation broth at 13,200 rpm for 10 minutes, weighing pellet, and calculated ratio of pellets weight (g) over volume (mL). The supernatant titer (g/L) was measured by the HPLC method and the whole broth (WB) titer was then calculated by below Equation[2]. Non reduced and reducing SDS-PAGE gels are performed following standard method.
# WB_Titer=Supernatant_Titer*(1−WCW/1000)
# The treatment cultures were operated the same way plus adding hydroxyurea 5 hours after feed start.
# [2] = test system: suspended S. cerevisiae cells; conditions: 5.7 g/L hydroxyurea; cited from earlier work
smiles,measurement,setting,value
NC(=O)NO [Hydroxyurea],average whole broth titer,"[1]; 90 hours run time, three hydroxyurea treatment lots, three control lots 59.8",75 normalized units
same,WCW reached/maintained by hydroxyurea treatment lots,"[1]; after peak cell density at 30-40 hours, control lots ~400 g/Kg, FIG. 8",~450 g/kg
same,Sup Titer (Normalized),[1]; age 59 h,83.9 ± 2.2 Normalized
same,WCW,[1]; age 59 h,437 ± 17 g/kg
same,WB Titer (Normalized),[1]; age 59 h,47.2 ± 1.8 Normalized
same,Sup Titer (Normalized),[1]; age 90 h,123.3 ± 5.8 Normalized
same,WCW,[1]; age 90 h,392 ± 20 g/kg
same,WB Titer (Normalized),[1]; age 90 h,75.0 ± 2.7 Normalized
same,reduction of cell mass,[2],50%
same,reduction of total polysaccharide content,[2],65%
same,synthesis of protein and RNA,[2],not adversely affected
